Assay results: paper PMC6450673, “Targeted degradation of aberrant tau in frontotemporal dementia patient-derived neuronal cell models” (eLife, 2019)
Values joined by “and” are separate entries in the source; they are usually repeats but may differ in a detail not shown here. Identical values can stand only once.

Tests used:
[1] = test system: P-tau S396 in P301L neurons; experiment: Western blot of P-tau S396 in P301L neurons; format: cell-based, human
From the text: (§1) Cells from individuals carrying the tau risk variant A152T (c.1407G > A; NCBI RefSeq NM_001123066, rs143624519), the autosomal dominant mutation P301L (c.C1907T; NCBI NM_001123066, rs63751273), or age-matched non-mutant WT tau were employed in this study (Figure 2—source data 1). Dermal fibroblasts from the tau-P301L carrier and the healthy individual were generated from a skin biopsy from subjects within the MGH Frontotemporal Disorders Unit as part of the MGH Neurodegeneration Repository. Approval for human subjects’ work was obtained under a Partners/MGH-approved IRB Protocol (#2010P001611/MGH). Fibroblasts were reprogrammed into iPSCs, which were subsequently converted into cortical-enriched neural progenitor cells (NPCs) and differentiated into neuronal cells as previously described ([Almeida et al., 2012]; [Seo et al., 2017]; [Silva et al., 2016]; [Sheridan et al., 2011]) (Silva MC, Manuscript in preparation, 2019). Briefly, cells were cultured in 6-well (Fisher Scientific Corning, Pittsburgh, PA) or 96-well (Fisher Scientific Corning) plates coated with poly-ornithine (20 μg/mL in water, Sigma, St. Louis, MO) and laminin (5 μg/mL in PBS, Sigma) (POL-coated), in DMEM/F12-B27 media [70% DMEM (Gibco, Carlsbad, CA), 30% Ham’s-F12 (Fisher Scientific Corning), 2% B27 (Gibco), 1% penicillin-streptomycin (Gibco)]. Media was supplemented with EGF (20 ng/mL, Sigma), FGF (20 ng/mL, Stemgent, Cambridge, MA) and heparin (5 μg/mL, Sigma), to promote NPC proliferation and expansion. The growth factors were withdrawn to promote neural differentiation for 6 to 8 weeks, with half media change two times per week. Cell lines’ identity was authenticated by SANGER sequencing, karyotyping and ACGH analysis at different stages of culture maintenance from iPSC to NPC. All working cell lines tested negative for mycoplasma contamination.
(§2) Compound treatment in six-well plates was performed in 2 mL media volume by removing 1 mL of conditioned media from the culture and adding 1 mL of new media pre-mixed with the compound at the appropriate 2X concentration, followed by incubation at 37°C for the designated period of time. Compound treatment in 96-well plates was performed in 100 μL media volume by adding compound directly to each well, followed by incubation at 37°C. When testing the effect of drug pre-treatment, the first compound was added as described above for the period of time needed, and then QC-01–175 was added directly onto the media without media exchange.
(§3) Neurons differentiated in six-well plates for 6 weeks were washed and collected in PBS, lysed in RIPA buffer (Boston Bio-Products, Boston, MA) supplemented with 2% SDS (Sigma), protease inhibitors cocktail (Roche Complete Mini tablets, Mannheim, Germany), and phosphatase inhibitors cocktail (Sigma), followed by water sonication (Bransonic Ultrasonic Baths, Thomas Scientific, Danbury, CT) and 20,000 g centrifugation for 20 min. Supernatants were transferred to new tubes and total protein concentration was quantified with the Pierce BCA Protein Assay Kit (ThermoFisher Scientific, Carlsbad, CA). Human recombinant tau protein ladder was purchased from Sigma. Electrophoresis were performed with the Novex NuPAGE SDS-PAGE Gel System (Invitrogen, Carlsbad, CA), by running 10 μg of total protein (pre-boiled in SDS-DTT loading buffer, NEB, Ipswich, MA) on pre-cast SDS-PAGE. Gels were transferred onto PVDF membranes (EMD Millipore) using standard procedures. Membranes were blocked in 5% BSA (Sigma) in Tris-buffered saline with Tween-20 (TBST/Biorad, Hercules, CA) for 2 hr, incubated overnight with primary antibody (see antibody section) at 4°C, followed by corresponding HRP-linked secondary antibody incubation (Cell Signaling Technology, Danvers, MA). […]

[2] = test system: total tau (TAU5) in A152T neurons; experiment: Western blot of total tau in A152T neurons; format: cell-based, human; settings: 24 hr
From the text: as §1, §2, §3

[3] = test system: total tau (TAU5) in P301L neurons; experiment: Western blot of total tau in P301L neurons; format: cell-based, human
From the text: as §1
Compound treatment in six-well plates was performed in 2 mL media volume by removing 1 mL of conditioned media from the culture and adding 1 mL of new media pre-mixed with the compound at the appropriate 2X concentration, followed by incubation at 37°C for the designated period of time. […]
Neurons differentiated in six-well plates for 6 weeks were washed and collected in PBS, lysed in RIPA buffer (Boston Bio-Products, Boston, MA) supplemented with 2% SDS (Sigma), protease inhibitors cocktail (Roche Complete Mini tablets, Mannheim, Germany), and phosphatase inhibitors cocktail (Sigma), followed by water sonication (Bransonic Ultrasonic Baths, Thomas Scientific, Danbury, CT) and 20,000 g centrifugation for 20 min. Supernatants were transferred to new tubes and total protein concentration was quantified with the Pierce BCA Protein Assay Kit (ThermoFisher Scientific, Carlsbad, CA). […]

[4] = target: T1, P-tau S396 in non-mutant control iPSC-derived neurons (Homo sapiens, UniProt P10636); experiment: P-Tau[pS396] ELISA in control neurons 1-3; format: cell-based; settings: replicate values
T1 construct: modeling pathogenic tau species without the need for overexpression of heterologous genes; endogenous in cells; host or cells: 8330-8-RC1, MGH2069-RC1, CTR2-L17-RC2 human iPSC-derived neurons
T1 sequence (P10636 1-441 isoform P10636-8, stated change not applied): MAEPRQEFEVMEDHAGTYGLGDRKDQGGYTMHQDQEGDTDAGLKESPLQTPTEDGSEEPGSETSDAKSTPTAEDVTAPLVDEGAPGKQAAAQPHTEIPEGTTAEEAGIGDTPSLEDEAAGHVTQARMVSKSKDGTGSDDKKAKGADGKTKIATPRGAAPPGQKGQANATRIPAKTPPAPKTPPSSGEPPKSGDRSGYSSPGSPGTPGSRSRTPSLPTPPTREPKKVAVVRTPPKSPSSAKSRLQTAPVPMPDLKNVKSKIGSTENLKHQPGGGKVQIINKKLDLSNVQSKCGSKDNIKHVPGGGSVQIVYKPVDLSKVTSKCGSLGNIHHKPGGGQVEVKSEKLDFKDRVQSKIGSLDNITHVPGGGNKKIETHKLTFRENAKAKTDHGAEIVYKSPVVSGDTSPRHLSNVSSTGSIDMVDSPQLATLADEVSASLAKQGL
From the text: as §1, §2
Neuronal cells differentiated in six-well plate format for 6 weeks, were collected as described for western blotting, and lysed in ELISA-compatible buffer (Invitrogen FNN0011), supplemented with 1 mM PMSF, protease (Roche) and phosphatase (Sigma) inhibitors cocktails, for 30 min on ice with quick vortexing. Lysates were clarified by centrifugation at 13,000 rpm at 4°C for 10 min. The clear lysates were then transferred to new microfuge tubes and total protein concentration was quantified with the Pierce BCA Protein Assay Kit (ThermoFisher Scientific). ELISA assays were performed according to manufacturer instructions: Human Total Tau ELISA (Invitrogen Kit KHB0041/KHB0042) and P-Tau[pS396] Human ELISA Kit (Invitrogen Kit KHB7031). Data was plotted using GraphPad Prism version 8.0.

[5] = QC-01-175 0.001 μM, 8 h treatment

**Q.** For `O=C(CCc1ccc2c(c1)[nH]c1ccncc12)NCCOCCOCCNc1cccc2c1C(=O)N(C1CCC(=O)NC1=O)C2=O` (stereo not shown) [QC-01–175], which “S396 P-Tau (relative to vehicle)” value ([1]; QC-01-175 0.001 μM, 4 h treatment) is on record?
**A.** 0.59 and 0.49 and 0.60 and 0.58 and 0.57 and 0.52

**Q.** What about the “S396 P-Tau (relative to vehicle)” value [1, 5] of the same compound?
**A.** 0.98 and 0.81 and 1.10 and 0.96 and 0.94 and 0.86

**Q.** What about the “S396 P-Tau (relative to vehicle)” value ([1]; QC-01-175 0.01 μM, 4 h treatment) of the same compound?
**A.** 0.62 and 0.51 and 0.75 and 0.61 and 0.59 and 0.54

**Q.** And the “S396 P-Tau (relative to vehicle)” value ([1]; QC-01-175 0.01 μM, 8 h treatment)?
**A.** 0.69 and 0.97 and 0.99 and 0.98 and 0.66 and 0.61

**Q.** What about the “S396 P-Tau (relative to vehicle)” value ([1]; QC-01-175 0.05 μM, 8 h treatment) of the same compound?
**A.** 0.74 and 0.61 and 0.85 and 0.73 and 0.71 and 0.65

**Q.** What about the “S396 P-Tau (relative to vehicle)” value ([1]; QC-01-175 0.1 μM, 4 h treatment) of the same compound?
**A.** 0.91 and 0.75 and 0.98 and 0.89 and 0.87 and 0.80

**Q.** And the “S396 P-Tau (relative to vehicle)” value ([1]; QC-01-175 0.1 μM, 8 h treatment)?
**A.** 0.62 and 0.51 and 0.70 and 0.61 and 0.59 and 0.54

**Q.** And the “S396 P-Tau (relative to vehicle)” value ([1]; QC-01-175 0.5 μM, 4 h treatment)?
**A.** 0.85 and 0.70 and 0.91 and 0.83 and 0.81 and 0.75

**Q.** What about the “S396 P-Tau (relative to vehicle)” value ([1]; QC-01-175 0.5 μM, 8 h treatment) of the same compound?
**A.** 0.41 and 0.34 and 0.45 and 0.39 and 0.36

**Q.** And the “S396 P-Tau (relative to vehicle)” value ([1]; QC-01-175 1 μM, 4 h treatment)?
**A.** 0.96 and 0.79 and 0.89 and 0.94 and 0.91 and 0.84

**Q.** What about the “S396 P-Tau (relative to vehicle)” value ([1]; QC-01-175 1 μM, 8 h treatment) of the same compound?
**A.** 0.47 and 0.55 and 0.51 and 0.46 and 0.54 and 0.59

**Q.** And the “S396 P-Tau (relative to vehicle)” value ([1]; QC-01-175 10 μM, 4 h treatment)?
**A.** 0.73 and 0.6 and 0.84 and 0.72 and 0.70 and 0.64

**Q.** What about the “S396 P-Tau (relative to vehicle)” value ([1]; QC-01-175 10 μM, 8 h treatment) of the same compound?
**A.** 0.72 and 0.70 and 0.75 and 0.71 and 0.69 and 0.63

**Q.** What about the “reduction of P-tau S396” value ([1]; western blot, 1 μM, 24 hr) of the same compound?
**A.** 80%

**Q.** And the “concentration at which maximal total tau clearance (Dmax, 24h) was achieved” value [2]?
**A.** 10 µM

**Q.** And the “Dmax, 24h for total tau” value ([2]; averaged across independent replicates (Figure 2—figure supplement 1))?
**A.** 75%

**Q.** What about the “TAU5 (relative to vehicle)” value [3, 5] of the same compound?
**A.** 0.95 and 0.90 and 0.56 and 0.94 and 0.68 and 0.86

**Q.** What about the “TAU5 (relative to vehicle)” value ([3]; QC-01-175 1 μM, 4 h treatment) of the same compound?
**A.** 1.07 and 1.10 and 0.76 and 0.60 and 0.72 and 0.88

**Q.** What about the “reduction in total tau” value ([3]; western blot, 1 μM, 24 hr) of the same compound?
**A.** 70%

**Q.** And the “S396 P-Tau (ELISA, relative to vehicle-treated)” value ([4]; Control 1, 8330-8-RC1, 24h, 0.001 μM)?
**A.** 0.90 and 1.07 and 1.00 (2×)

**Q.** And the “S396 P-Tau (ELISA, relative to vehicle-treated)” value ([4]; Control 1, 8330-8-RC1, 24h, 0.01 μM)?
**A.** 0.97 (2×) and 0.67 and 0.90

**Q.** And the “S396 P-Tau (ELISA, relative to vehicle-treated)” value ([4]; Control 1, 8330-8-RC1, 24h, 0.1 μM)?
**A.** 0.71 and 0.84 and 1.21 and 0.90

**Q.** And the “S396 P-Tau (ELISA, relative to vehicle-treated)” value ([4]; Control 1, 8330-8-RC1, 24h, 1 μM)?
**A.** 0.85 and 1.01 and 0.80 and 0.95

**Q.** What about the “S396 P-Tau (ELISA, relative to vehicle-treated)” value ([4]; Control 1, 8330-8-RC1, 24h, 10 μM) of the same compound?
**A.** 0.55 and 0.65 and 0.77 and 0.86

**Q.** What about the “S396 P-Tau (ELISA, relative to vehicle-treated)” value ([4]; Control 2, MGH2069-RC1, 24h, 0.001 μM) of the same compound?
**A.** 0.71 and 0.83 and 1.11 and 0.91

**Q.** What about the “S396 P-Tau (ELISA, relative to vehicle-treated)” value ([4]; Control 2, MGH2069-RC1, 24h, 0.01 μM) of the same compound?
**A.** 0.89 and 1.05 and 1.10 and 0.99

**Q.** And the “S396 P-Tau (ELISA, relative to vehicle-treated)” value ([4]; Control 2, MGH2069-RC1, 24h, 0.1 μM)?
**A.** 0.85 and 1.00 and 0.99 and 1.30

**Q.** What about the “S396 P-Tau (ELISA, relative to vehicle-treated)” value ([4]; Control 2, MGH2069-RC1, 24h, 1 μM) of the same compound?
**A.** 1.14 (2×) and 1.04 and 0.97
